pKi: −log10 of the molar value. “Also recorded” adds a separate entry of the source. One block for each molecule: values may come before it.
Assays:
[1] = tested on: retinal ganglion cell axons; test: Protection of retinal ganglion cell axons from degeneration following optic nerve transection (Table V); type: in vivo; conditions: ± SEM
Source text: Efficacy of representative compounds from different immunophilin ligand series in protecting retinal ganglion cell axons from degeneration following optic nerve transection is set forth in Table V.

FKBP12 = FKBP12 (Homo sapiens, UniProt P62942); test: Ki test procedure: inhibition of peptidyl-prolyl isomerase (rotamase) activity, chymotrypsin-coupled assay; type: biochemical; conditions: Table V comments; read-out: Ki rotomase
Source text: The inhibition of the prolyl peptidyl cis-trans isomerase activity of FKBP may be measured as an indicator of this affinity. Inhibition of the peptidyl-prolyl isomerase (rotamase) activity of the compounds used in the inventive methods and pharmaceutical compositions can be evaluated by known methods described in the literature (Harding et al., Nature, 1989, 341:758-760; Holt et al. J. Am. Chem. Soc., 115:9923-9938). […] The inhibition of this reaction caused by the addition of different concentrations of inhibitor is determined, and the data is analyzed as a change in first-order rate constant as a function of inhibitor concentration to yield the apparent Ki values. […] The reaction is initiated by the addition of […] of substrate (succinyl-[…]-nitroanilide, 5 mg/mL in 2.35 mM LiCl in trifluoroethanol). The absorbance at 390 nm versus time is monitored for 90 seconds using a spectrophotometer and the rate constants are determined from the absorbance versus time data files.

[2] = Clearance (Table V comments); type: in vitro ADME
retinal ganglion cells [3] = test: Retinal ischemia: retinal ganglion cell, optic nerve axon and myelin degeneration (FIGS. 1, 2); type: in vivo, rats
Source text: Retinal ganglion cells were retrogradely labeled in adult rats by bilateral injection of fluorogold in their lateral geniculate nuclei. Labeled ganglion cells in the normal rat retina appear as white profiles against the dark background (FIG. 1A). Complete retinal ischemia was produced by infusing normal saline solution into the retinal vitreous cavity of each eye until the intraocular pressure exceeded arterial blood pressure. 28 days after the ischemic episode extensive degeneration of retinal ganglion cell was evidenced by massive reduction in the density of fluorogold labeled cells (FIG. 1B). […] FIG. 2. […] Optic nerves from vehicle treated cases examined 28 days after a 1 hour retinal ischemic episode are characterized by a decreased density of optic nerve axons and the appearance of numerous degenerating myelin figures (bright white filled circles). […] FIG. 3. […] Few spared fluorogold pre labeled ganglion cells are present in vehicle treated cases (large white figures) among a population of small microglia that digest the debris of the degenerating cells and take up the fluorogold label (FIG. 3A). […] FIG. 4. […] 90 days after transection few ganglion cell axons remain within the optic nerve (FIG. 4B), representing only 5.6% of the normal population. The loss of axons reflects both the death of retinal ganglion cells and the regression or “dying back” of the axons of ˜70% of the small surviving ganglion cell population into the retina itself (Table 1). […] FIG. 5. […] FIG. 6. […] 90 days after transection extensive degeneration of myelin is evident in vehicle treated cases, characterized by the loss of fascicular organization and the appearance of numerous large dense degenerating myelin figures (FIG. 6B, upper right). […] FIG. 7. FKBP-12 immunohistochemistry labels oligodendroglia (large dark cells with fibrous processes), the cells which produce myelin, located between the fascicles of optic nerve fibers, and also some optic nerve axons. FIG. 8. […]

retina = test: Streptozotocin induced diabetes: retinal neovascularization and neuron loss (FIG. 9); type: in vivo
[4] = tested on: retinal ganglion cells and optic nerve axons; test: In vivo retinal ganglion cell and optic nerve axon tests after optic nerve transection (Example 6, Table 1); parameters: species or system Sprague Dawley rats; conditions: for Proximal optic nerve myelin basic protein Density: SEM, % areal coverage of optic nerve cross section; for increased ON axon density: adjusted for optic nerve diameter; for Distal optic nerve stump shrinkage: cross sectional area compared to sham control; for Distal optic nerve myelin basic protein Density: cross sectional area multiplied by myelin density
Source text: All eyes and optic nerves stumps were removed.

[5] = Morris watermaze spatial learning and memory in aged rodents (Example 19); type: in vivo, C57BL/6N-Nia mice; conditions: aged impaired mice, daily 10 mg/kg GPI-1046, retention testing after 3 weeks of dosing; listed as GPT-1046, 10 mg/kg
Source text: In all of these tasks, a proportion of aged rats or mice perform as well as the vast majority of young control animals, while other animals display severe impairments in memory function compared to young animals. […] Specifically, rodent spatial learning and memory decline during aging has been accepted by many investigators as an intriguing correlative animal model of human senile dementia. Cholinergic function in the hippocampus has been extensively studied as a component of spatial learning in rodents, and declining hippocampal cholinergic function has been noted in parallel with the development of learning and memory impairments. […] Also, reports on age-related deficits of hippocampal long-term potentiation (LTP)-induction, a reduction in theta rhythm frequency, a loss of experience-dependent plasticity of hippocampal place-units, and reductions in hippocampal protein kinase C are in keeping with the concept that no single underlying pathology can be identified as the cause of age-related behavioral impairment in rodents. However, the various experimental therapeutic approaches that have been undertaken to improve memory function in aged rodents have been somewhat slanted towards the cholinergic hypothesis. The Morris watermaze is widely used for assessing spatial memory formation and retention in experimental animals. […]

[6] = Peripheral sensory neuropathy in streptozotocin-induced diabetic rat, hot plate and tail flick (Example 18); type: in vivo, Wistar rats; conditions: lesioned animals treated for 6 weeks at 10 mg/kg s.c.
Protocol: The procedure involved using Male Wistar rats which were given a single injection of streptozotocin (65 mg/kg i.v.). Blood glucose levels were determined weekly for the first three weeks and on the last week of the experiment. Animals were evaluated weekly for signs of sensory neuropathy using the conventional hot plate and tail flick apparatus test procedures.

retinal ganglion cells [7] = test: Retinal ganglion cell survival and axonal dying back following optic nerve transection (Example 17); type: in vivo, Sprague Dawley rats; conditions: GPI-1046 10 mg/kg/day s.c. for 28 days
Source text: Transection of the mammalian optic nerve results in a brief period of abortive regeneration, but the majority of axotomized neurons die and the axons from many persisting ganglion cells die back beyond the optic nerve head.

Sequence of FKBP12 (P62942 whole entry, species assumed): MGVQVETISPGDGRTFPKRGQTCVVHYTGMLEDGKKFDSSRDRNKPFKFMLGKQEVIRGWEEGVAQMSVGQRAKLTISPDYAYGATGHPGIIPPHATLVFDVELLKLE

Molecule: CCC(C)(C)C(=O)C(=O)N1CCCC[C@H]1C(=O)SCCC(c1ccccc1)c1ccccc1 [Compound K]
RT 97 RGC axon density 14 days after ON transection [1]: 13.0% ± 4.2% SEM

Molecule: CCC(C)(C)C(=O)C(=O)N1CCCC[C@H]1C(=O)O [G]
RT 97 RGC axon density 14 days after ON transection [1]: 34.0% ± 4.8% SEM

pKi (FKBP12): 6.83
Molecule: O=C(SCCCc1ccccc1)[C@@H]1CCCN1C(=O)NC12CCC(CC1)C2 [B]
RT 97 RGC axon density 14 days after ON transection [1]: 100.0% ± 5.2% SEM

Molecule: CCC(C)(C)C(=O)C(=O)N1CCC[C@H]1C(=O)O [L]
RT 97 RGC axon density 14 days after ON transection [1]: 7.8% ± 3.0% SEM
pKi (FKBP12): < 5.11

Clearance [2]: 3.5 µL/min
pKi (FKBP12): 8.12
Molecule: 3-(3-pyridyl)-1-propyl (2s)-1-(3,3-dimethyl-1,2-dioxopentyl)-2-pyrrolidinecarboxylate [GPI 1046]
RT 97 RGC axon density 14 days after ON transection [1]: 60.5% ± 3.9 SEM

Clearance [2]: 41.8 µL/min
Molecule: CCC(C)(C)C(=O)C(=O)N1CCCCC1C(=O)OC(CCc1ccccc1)CCc1ccccc1 (centres unmarked) [E]

Molecule: CCC(C)(C)C(=O)C(=O)N1CCC[C@H]1C(=O)SCCC(c1ccccc1)c1ccccc1 [M]
RT 97 RGC axon density 14 days after ON transection [1]: −6.3% ± 3.9% SEM

Molecule: O=C(OCCCc1cccnc1)[C@@H]1CCCN1C(=S)NC1CCCCC1 [I]
RT 97 RGC axon density 14 days after ON transection [1]: 23.8% ± 5.3% SEM

Molecule: O=C(SCCCc1ccccc1)[C@@H]1CCCN1S(=O)(=O)Cc1ccccc1 [C]
RT 97 RGC axon density 14 days after ON transection [1]: 60.4% ± 3.1% SEM

Molecule: CCC(C)(C)C(=O)C(=O)N1CCCC[C@H]1C(N)=O [H]
RT 97 RGC axon density 14 days after ON transection [1]: 30.3% ± 8.0% SEM

Molecule: CCC(C)(C)C(=O)C(=O)N1CCS[C@@H]1C(=O)OCCCc1cccnc1 [F]
RT 97 RGC axon density 14 days after ON transection [1]: 55.1% ± 5.9% SEM

Molecule: CCC(C)(C)C(=O)C(=O)N1CCC[C@H]1C(=O)OCCCc1cccnc1 [GPI 1046, 3-(3-pyridyl)-1-propyl (2s)-1-(3,3-dimethyl-1,2-dioxopentyl)-2-pyrrolidinecarboxylate]
protection of retinal ganglion cells (fluorogold labeled) against degeneration (retinal ganglion cells [3]; GPI 1046 10 mg/kg s.c. 1 hour prior to ischemia and 10 mg/kg/day for next four days, 28 days after ischemia): noticeable protection of a large proportion of the vulnerable ganglion cell population; also recorded: protects retinal ganglion cells against degeneration
density of degenerating myelin figures (retinal ganglion cells [3]; same retinal ischemia cases, 28 days after 1 hour ischemic episode): dramatically decreased
degeneration of optic nerve axons (retinal ganglion cells [3]; same retinal ischemia cases, 28 days after 1 hour ischemic episode, toluidine blue staining): protected the majority of optic nerve axons from degeneration; also recorded: prevents degeneration of optic nerve axons and myelin
loss of neurons in the INL and GCL (retina; 28 day GPI 1046 treatment beginning 8 weeks after onset of diabetes, compared to streptozotocin/vehicle): protects neurons in the inner nuclear layer (INL) and ganglion cell layer (GCL) from degeneration
neovascularization in the retina (PR, ONL, OPL, INL) (retina; 28 day GPI 1046 treatment beginning 8 weeks after onset of streptozotocin induced diabetes): reduced neovascularization; also recorded: decreases the extent of neovascularization
quantitative recovery in myelin density ([4]; GPI 1046 for the first 14 days after transection, proximal stump): 1.60
myelin levels, distal stump ([4]; GPI 1046 through the first 28 days after transection): ~99 % of normal levels
Proximal optic nerve myelin basic protein Density ([4]; ONT/14 days GPI 1046): did not alter the pattern of myelin degeneration
increased ON axon density ([4]; ONT/14 days GPI 1046): 1.5 X
Distal optic nerve stump shrinkage ([4]; ONT/14 days GPI 1046): did not protect against shrinkage of the distal stump
Distal optic nerve myelin basic protein Density ([4]; ONT/14 days GPI 1046): slightly increase the density of myelin
Proximal optic nerve myelin basic protein Density ([4]; ONT/28 days GPI 1046): prevents myelin degeneration in the proximal stump
increased ON axon density ([4]; ONT/28 days GPI 1046): 5.0 X
Distal optic nerve stump shrinkage ([4]; ONT/28 days GPI 1046): prevented cross sectional shrinkage of the distal stump
Distal optic nerve myelin basic protein Density ([4]; ONT/28 days GPI 1046): prevents myelin degeneration in the distal stump
spatial memory performance (swim distance), retention testing [5]: no longer any statistically significant difference
latency, hot plate and tail flick [6]: improvement in latency
axons of protected neurons in the proximal stump (RT97) (retinal ganglion cells [7]; 90 days after transection): preserved the axons of virtually all protected neurons
ganglion cell population spared (retinal ganglion cells [7]; sacrificed 90 days after transection): 25%

Molecule: CCC(C)(C)C(=O)C(=O)N1CCC[C@H]1C(=O)CCCCc1cccnc1 [J]
RT 97 RGC axon density 14 days after ON transection [1]: 15.8% ± 4.8% SEM

Reference: US7410995B1, “N-linked sulfonamide of heterocyclic thioesters for vision and memory disorders” (GPI Nil Holdings Inc., priority 1998, dated 2008)
